{"source": "patent US11965100B2", "about": "“Aggregation-induced emission luminogens useful for cancer cell discrimination and monitoring” (The Hong Kong University of Science and Technology, priority 2020, dated 2024)", "key": {"[1]": {"assay": "Two-photon absorption cross section in DMSO, fluorescein as standard", "format": "physicochemical", "description": "In addition, IVP-02 emits redder fluorescence in solid state than that in solution. To testify the mechanism of the red shift in solid state of IVP-02, its crystal has been analyzed in FIGS. 2G and 2H. The molecules of IVP-02 are anti-parallelly stacked and form multimers in the crystalline state. The short intermolecular stacking distances of the multimers are 3.636 Å, 3.455 Å, 3.394 Å, 3.375 Å, 3.466 Å, and 3.465 Å, indicating strong intermolecular interactions inside the multimers. So the red-shift emission in solid state should be attributed to the intermolecular π-π interactions induced by the short contact between the molecules. […] The TPEF spectra of IVP-02 excited at different pulse wavelengths (780-900 nm) in DMSO were measured in FIG. 2F. The highest […] was 287 GM excited at 800 nm. Such high δ value is beneficial for two-photon imaging in live cells and deep tissues."}, "[2]": {"system": "A549 and HLF cells", "assay": "CLSM imaging of A549 and HLF cells seeded on different cover glasses in the same dish", "format": "cell-based, human", "conditions": "2 μM, 30 min", "experimental": "FIG. 5 CLSM images of live cancer cells (A549 and HeLa) co-cultured with normal cells (COS7 and HLF) (A), and the images of A549 and HLF cells seeded on different cover glasses (Scale bar=20 μm) (B) stained with 2 μM IVP-02 for 30 min (Scale bar=50 μm), respectively. λex=488 nm, λem=500-650 nm.\nFIG. 10 CLSM images of live cancer cells (A549) co-cultured with normal cells (COS7) (A), and the images of A549 and HLF cells seeded on different cover glasses Scale bar=20 μm (B) stained with 2 μM IVP-02, 04, 06, 22, 42, and 62 for 30 min Scale bar=50 μm, respectively. (The first column in B is the same as FIG. 3B) λex=488 nm, λem=500-650 nm.\nThe bioimaging properties of IVP-02 in live cells were investigated by confocal laser scanning microscopy (CLSM). Cancer cells (A549 and HeLa) and normal cells (COS7 and HLF) were stained with IVP-02, respectively. […] So IVP-02 holds the high potential to differentiate cancer and normal cells. To verify this speculation, cancer and normal cells were co-cultured and stained with IVP-02. […] To precisely confirm the selectivity of IVP-02 to cancer cells, cancer cells A549 and normal cells HLF (A549 and HLF are both human lung cells) were seeded on different cover glasses, respectively. Then the two cover glasses were put in the same dish and stained with IVP-02 at the same time.\nCancer cells A549 co-cultured with normal cells COS7 were stained with these molecules, respectively. […] Then HeLa cells co-cultured with COS7 cells (FIG. 11), and A549 cells co-cultured with HLF cells (FIG. 12) were also stained with these molecules, the results were similar with that in A549 cells co-cultured with COS7 cells. In addition to co-culturing, A549 cells and HLF cells were also seeded on different cover glasses and stained with these molecules. […] Based on the imaging results above, it can be concluded that the selectivity of these IVP molecules to cancer cells is also based on the length of alkyl chain at pyridinium salt side. Lengthening the alkyl chain at the pyridinium salt side will eliminate the selectivity to cancer cells."}, "[3]": {"system": "A549 and HeLa cells", "assay": "Mitochondrion-nucleolus migration on H2O2 treatment", "format": "cell-based", "conditions": "pre-stained 2 μM 30 min, 10 mM H2O2 10 min", "experimental": "FIG. 17 Live A549 and HeLa cells were pre-stained with 2 μM IVP-02 for 30 min, and treated with 10 mM H2O2 for 10 min. λex=488 nm, λem=500-650 nm. Scale bar=20 μm.\nMonitoring cell viability is a highly valuable task for the fundamental researches in biology, pathology, and medicine. Then we investigated whether IVP-02 could monitor cell viability. Δψm is a very important indicator to characterize cell viability. With the loss of cell viability, Δψm would decrease, while with the recovery of cell viability, Δψm would also recover to the normal level. […] Carbonyl cyanide m-chlorophenyl hydrazone (CCCP) is a type of protonophore and can cause rapid acidification of mitochondria by collapsing Δψm. Cancer cells A549 were pre-stained with IVP-02 for 30 min. In FIG. 15A, in the beginning, IVP-02 stained mitochondria clearly. […] Hydrogen peroxide (H2O2) can inhibit the oxidation respiratory chain that would cause the loss of cell viability. Then live A549 and HeLa cells were pre-stained with IVP-02, and treated with 10 mM H2O2."}, "[4]": {"system": "HeLa cells", "assay": "Two-photon imaging in live cells", "format": "cell-based", "conditions": "2 μM, 30 min, λex 800 nm", "experimental": "FIG. 22 (A) Two-photon microscopy images of live HeLa cells stained with 2 μM IVP-02 for 30 min. λex=800 nm, λem=495-540 nm. Scale bar=20 μm. (B) Viability of A549 cells after incubation with IVP-02, 04, 06, 22, 42, and 62 at different concentrations for 24 h.\nGiven the high two-photon absorption cross section values of IVP-02 excited by 800 nm, we performed in vitro two-photon imaging of IVP-02 in live HeLa cells."}, "[5]": {"system": "mitochondria in HeLa and A549 cells", "assay": "Co-stain with mitochondrial probe MitoTracker Deep Red FM (MTDR)", "format": "cell-based", "conditions": "2 μM dye, 0.2 μM MTDR, HeLa and A549", "experimental": "FIG. 6 CLSM images of live HeLa and A549 cells stained with 2 μM IVP-02 and 0.2 μM MTDR, respectively. IVP-02: λex=488 nm, λem=500-650 nm; MTDR: λex=640 nm, λem=650-700 nm. Scale bar=20 μm.\nIn the above pictures, filamentous structures in cytoplasm of cancer cells were observed, which were typical morphology of mitochondria. Then co-stain experiments with commercial mitochondrial probe MitoTracker™ Deep Red FM (MTDR) were carried out (FIG. 6).\nIt was speculated that the membrane permeability of the probe was a key factor for its selectivity to cancer cells, since the plasma membrane of cancer cells was reported to be more permeable than normal cells. Consequently, IVP-02 was modified by lengthening the alkyl chain at the pyridine salt side and indole side, respectively, to tune the membrane permeability. The synthetic route to these new IVP molecules is depicted in Scheme 1. Their chemical structures were fully characterized by ^1H NMR, ^13C NMR, and ^19F NMR. Then cancer cells A549 were stained with the five new molecules, respectively. […] The co-stain experiments with MTDR also confirmed their location in mitochondria in A549 cells in FIG. 7C. In addition to A549 cells, the same experiments were also carried in HeLa cells (FIGS. 8 and 9)."}}}
{"smiles": "CC[n+]1ccc(/C=C/c2c[nH]c3ccccc23)cc1", "note": "[IVP-02]", "values": [{"measurement": "Two-photon absorption cross section (δ)", "setting": "[1]; λex 780 nm", "result": 106, "unit": "GM"}, {"measurement": "Two-photon absorption cross section (δ)", "setting": "[1]; λex 800 nm", "result": 287, "unit": "GM"}, {"measurement": "Two-photon absorption cross section (δ)", "setting": "[1]; λex 820 nm", "result": 173, "unit": "GM"}, {"measurement": "Two-photon absorption cross section (δ)", "setting": "[1]; λex 840 nm", "result": 194, "unit": "GM"}, {"measurement": "Two-photon absorption cross section (δ)", "setting": "[1]; λex 860 nm", "result": 271, "unit": "GM"}, {"measurement": "Two-photon absorption cross section (δ)", "setting": "[1]; λex 880 nm", "result": 227, "unit": "GM"}, {"measurement": "Two-photon absorption cross section (δ)", "setting": "[1]; λex 900 nm", "result": 78, "unit": "GM"}, {"measurement": "staining of A549 and HLF cells on different cover glasses", "setting": "[2]", "result": "only A549 cells on the upper cover glass were illuminated"}, {"measurement": "fluorescence after adding H2O2", "setting": "[3]", "result": "strong fluorescence was observed in nucleolus"}, {"measurement": "two-photon fluorescence imaging", "setting": "[4]", "result": "bright two-photon fluorescence"}, {"measurement": "co-localization coefficient with MTDR", "setting": "[5]", "result": "around 0.9"}]}
